“Also recorded” adds a separate entry of the source. Marks after values point to notes of the source that are not given here. Where a SMILES comes first, the peptide text is derived from it. [ ]: non-standard residue; d: D form. The star is where a group is joined. Sta = CC(C)C[C@H](N)[C@@H](O)CC(=O)O; Isovaleryl = CC(C)CC(=O)*
Tests used:
[1] = target: T1, Cathepsin V (Homo sapiens, UniProt O60911); test: Determination of binding reversibility (dilution method); type: biochemical; conditions: inhibitor 100 μM, cathepsin V 500 ng/ml
T1 construct: made in house; host or cells: Pichia pastoris
T1 sequence (O60911 114-334): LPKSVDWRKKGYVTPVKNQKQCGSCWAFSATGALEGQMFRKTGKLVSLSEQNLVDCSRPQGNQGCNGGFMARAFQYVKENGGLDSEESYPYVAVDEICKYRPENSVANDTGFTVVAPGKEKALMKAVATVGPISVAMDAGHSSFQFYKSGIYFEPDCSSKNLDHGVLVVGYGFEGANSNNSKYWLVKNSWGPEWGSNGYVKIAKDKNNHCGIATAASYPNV
Method: Binding reversibility was determined according to the dilution method, which measures the recovery of enzymatic activity after rapid dilution of the enzyme-inhibitor complex. Cathepsin V (500 ng/ml) was incubated in the assay buffer with the inhibitor (100 μM). Half of the reaction mixture was immediately diluted 100-fold with the assay buffer and added to the wells of a black microplate containing 5 μL of substrate (at a final concentration of 2 μM), and the activity was measured. The other half of the reaction mixture was incubated for 2 h before it was diluted 100-fold, and then the activity was measured. The assay was performed in triplicates and repeated at least two times.

[2] = target: T2, human recombinant cathepsin L (Homo sapiens, UniProt P07711); test: Determination of relative inhibition, substrate Z-Phe-Arg-AMC; type: biochemical; conditions: inhibitor 50 μM; substrate 2 μM; mean ± SD (n = 2); read-out: Cathepsin L Ri (%) relative inhibition
T2 construct: made in house; host or cells: Escherichia coli
T2 sequence (P07711 114-333): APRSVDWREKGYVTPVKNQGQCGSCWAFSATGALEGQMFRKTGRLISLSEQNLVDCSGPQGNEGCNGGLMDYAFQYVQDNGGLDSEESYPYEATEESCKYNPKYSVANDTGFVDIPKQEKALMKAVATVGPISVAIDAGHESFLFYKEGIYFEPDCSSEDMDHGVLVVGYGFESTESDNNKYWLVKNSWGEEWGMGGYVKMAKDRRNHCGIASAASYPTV
Method: (§1) Human recombinant cathepsin V was expressed in Pichia Pastoris, and human recombinant cathepsin L was expressed in Escherichia coli, as reported, [51]. To determine the activities of cathepsins V and L, 100 mM acetate buffer (pH 5.5), containing 0.1 % PEG 8000 (Sigma-Aldrich, St. Louis, MO, USA), 5 mM cysteine, and 1.5 mM EDTA was used. Prior to the assay, the enzyme was activated in the assay buffer for 5 min at 37 °C.
(§2) The effect of the inhibitors on cathepsin V and L activity was determined using the substrate Z-Phe-Arg-AMC (Bachem, Bubendorf, Switzerland). The reaction was initiated by adding 90 μL of the activated enzyme (final concentration 2.5 ng/mL and 0.02 nM for cathepsins V and L, respectively) to the wells of a black microtiter plate containing 5 μL of substrate (with a final concentration 2 μM) and 5 μL of inhibitor (with a final concentration of 50 μM). The formation of fluorescent degradation products during the reaction was monitored continuously at 460 nm ± 10 nm with excitation at 380 nm ± 20 nm at 37 °C on a Tecan Infinite M1000 (Mannedorf, Switzerland) spectrofluorometer. All assay mixtures contained 5 % (v/v) DMSO. To prevent false-positive inhibition due to the formation of compound aggregates, 0.01 % Triton X-100 was used. All measurements were performed in triplicate and repeated at least twice. Relative inhibition was calculated using the following equation: relative inhibition (%) = 100(1- vi/vo), where vi and vo denote the reaction velocities in the presence and absence of the inhibitor, respectively.

[3] = target: T1, Cathepsin V; test: as above; type: biochemical; conditions: inhibitor 50 μM; substrate 2 μM; mean ± SD (n = 2); read-out: Cathepsin V Ri (%) relative inhibition
Method: as §1, §2

[4] = target: T2, human recombinant cathepsin L; test: Determination of Ki values and mode of inhibition; type: biochemical
Method: as §1
(§3) Inhibition constants were calculated from reaction velocities measured at three substrate concentrations (0.5, 1, and 4 μM) in the presence of inhibitors at seven concentrations (0, 20, 40, 60, 80, 100, and 200 µM). The reaction was initiated by adding 90 μL of enzyme at final concentrations of 2.5 ng/mL and 0.02 nM for cathepsins V and L, respectively, to the wells of a black microtiter plate containing 5 μL of substrate and 5 μL of inhibitor. To evaluate cathepsin V and L activity, the substrate Z-Phe-Arg-AMC was used. The formation of the fluorescent degradation products was monitored as described above. All assay mixtures contained 5 % (v/v) DMSO. All measurements were performed in duplicates and repeated at least twice. The SigmaPlot® 12, Enzyme Kinetics Module™ 1.3 was used to calculate Ki values.

[5] = target: T1, Cathepsin V; test: Determination of Ki values and mode of inhibition; type: biochemical; conditions: for fold lower inhibition constant for cathepsin V than cathepsin L: selectivity cathepsin V vs cathepsin L
Method: as §1, §3

[6] = tested on: MCF7 cells; test: Proliferation assay (CFSE-labeled cells, flow cytometry); type: cell-based, human; conditions: 72 h; E-64d 10 μM, pepstatin 20 μM, LHVS 10 nM, CLIK-148 1 μM
Method: To assess the effect of cathepsin V inhibitors on cell proliferation, MCF7 cells were fluorescently labeled with carboxyfluorescein succinimidyl ester (CFSE; ImmunoChemistry Technologies, Bloomington, MN, USA) in PBS for 15 min at room temperature according to the manufacturer’s instructions. Cells were washed with PBS, resuspended in complete medium, seeded (at 4 × 10^4 cells/well) into 24-well plates, and allowed to adhere overnight. Cells were then treated with the following inhibitors: compound 7 (10 μM), E-64d (10 μM), CLIK-148 (1 μM), LHVS (10 nM), pepstatin (20 μM), their combinations, or DMSO (0.1 %) in 500 μL of medium for 72 h at 37 °C. To prepare cells for flow cytometry, cells were detached and transferred to round-bottomed polystyrene tubes and washed with PBS. Before measurement, 7-aminoactinomycin D (7-AAD; ImmunoChemistry Technologies, Bloomington, MN, USA) was added according to the manufacturer’s instructions to exclude dead cells. Therefore, the green fluorescence arising from CFSE was monitored only for viable cells. The measurement was performed using a FACSCalibur instrument (BD Biosciences, San Jose, CA, USA).

[7] = tested on: U-937-derived macrophages; test: Intracellular elastin-FITC degradation; type: cell-based, human; conditions: 24 h; for decrease of elastin-FITC degradation: 10 μM, vs DMSO; for effect on degradation of elastin-FITC compared to control cells: CLIK-148 1 μM, LHVS 10 nM
Method: To evaluate the effect of the inhibitors on the elastolytic activity of cathepsin V, we assessed the intracellular degradation of elastin-FITC, a soluble bovine neck ligament elastin that is heavily labeled with FITC such that the fluorescence of the conjugate is quenched. Upon proteolysis, fluorescence is recovered and can be detected. U-937 cells, differentiated into macrophage-like cells, were seeded (at 1 × 10^5 cells/well) into 24-well plates with 500 μL of medium supplemented with 50 nM PMA. Inhibitors or DMSO (0.1 %) and elastin-FITC (10 μg/mL; AnaSpec, Fermont, CA, USA) were added to the medium and incubated for 24 h at 37 °C. Cells were detached and washed with PBS, and propidium iodide (BD Bioscience) was added to exclude dead cells. Therefore, green fluorescence arising from elastin-FITC degradation was monitored only for viable cells. The measurement was performed using a FACSCalibur instrument (BD Biosciences).

## CC(=O)c1cccc(NC(=O)c2cnc3sccn3c2=O)c1 [Compound 4, N-(3-acetylphenyl)-5-oxo-5H-thiazolo[3,2-a]pyrimidine-6-carboxamide]
[1]
  binding reversibility: cathepsin V activity after 2 h incubation and 100-fold rapid dilution: reversible inhibition
[2]
  inhibition at 50 µM: 23.5 ± 2.2%
[3]
  inhibition at 50 µM: > 20%
[4]
  mode of inhibition of cathepsin L: competitive
[4]; mean ± SD (n = 2)
  Ki: 84.3 ± 4 µM
[5]
  mode of inhibition of cathepsin V: competitive
[5]; mean ± SD (n = 2)
  Ki: 352 ± 78.6 µM

## CC(C)CC(=O)N[C@H](C(=O)N[C@H](C(=O)N[C@@H](CC(C)C)[C@@H](O)CC(=O)N[C@@H](C)C(=O)N[C@@H](CC(C)C)[C@@H](O)CC(=O)O)C(C)C)C(C)C [pepstatin] (Isovaleryl-VV[Sta]A[Sta]-OH)
[6]
  effect on cell proliferation (relative CFSE fluorescence intensity vs DMSO): no effects on cell proliferation

## O=C(NCC1CCN(C(=O)Oc2ccccc2)CC1)NC(c1ccccc1)c1ccccc1 [Compound 42, Phenyl 4-((3-benzhydrylureido)methyl)piperidine-1-carboxylate]
[1]
  binding reversibility: cathepsin V activity after 2 h incubation and 100-fold rapid dilution: reversible; also recorded: restored
[2]
  inhibition at 50 µM: 3.5 ± 3.1%
[3]
  inhibition at 50 µM: 21.6 ± 4.6%
[4]
  mode of inhibition of cathepsin L: noncompetitive
[4]; mean ± SD (n = 2)
  Cathepsin L Ki′ (µM): 319.2 ± 28.6^e µM
  Ki: 319 ± 28.6 µM
[5]
  mode of inhibition of cathepsin V: noncompetitive
  fold lower inhibition constant for cathepsin V than cathepsin L: more than 2 fold
[5]; mean ± SD (n = 2)
  Cathepsin V Ki′ (µM): 155.8 ± 3.4^e µM
  Ki: 156 ± 3.4 µM

## O=C(c1ccccc1OCc1ccccc1)C1OC1c1csc(-c2ccccc2)n1 (stereo not drawn) [Compound 40, (2-(Benzyloxy)phenyl)(3-(2-phenylthiazol-4-yl)oxiran-2-yl)methanone]
[1]
  binding reversibility: cathepsin V activity after 2 h incubation and 100-fold rapid dilution: reversible; also recorded: restored
[2]
  inhibition at 50 µM: 12.4 ± 0.7%
[3]
  inhibition at 50 µM: 27.6 ± 8.7%
[4]
  mode of inhibition of cathepsin L: competitive
[4]; mean ± SD (n = 2)
  Ki: 454 ± 69.1 µM
[5]
  mode of inhibition of cathepsin V: uncompetitive
  fold lower inhibition constant for cathepsin V than cathepsin L: 21 fold
[5]; mean ± SD (n = 2)
  Cathepsin V Ki′: 21.2 ± 2.0 µM
  Cathepsin V Ki′ (µM): 21.2 ± 2.0^f µM

## Cc1cc(OCc2ccccc2)c(C(=O)C2OC2c2cc3ccccc3o2)cc1C (stereo not drawn) [Compound 27, (3-(Benzofuran-2-yl)oxiran-2-yl)(2-(benzyloxy)-4,5-dimethylphenyl)methanone]
[1]
  binding reversibility: cathepsin V activity after 2 h incubation and 100-fold rapid dilution: tight-binding or irreversible; also recorded: only partially restored
[2]
  inhibition at 50 µM: 22.6 ± 5.1%
[3]
  inhibition at 50 µM: > 20%
[7]
  decrease of elastin-FITC degradation: 7.1 ± 2.7%
[4]
  mode of inhibition of cathepsin L: competitive
[4]; mean ± SD (n = 2)
  Ki: 249 ± 29.8 µM
[5]
  mode of inhibition of cathepsin V: noncompetitive
  fold lower inhibition constant for cathepsin V than cathepsin L: more than 3 fold
[5]; mean ± SD (n = 2)
  Cathepsin V Ki′ (µM): 68.3 ± 4.6 ^g µM
  Ki: 68.3 ± 4.6 µM

## CN(C)C(=O)[C@H](Cc1ccccc1)NC(=O)[C@H]1O[C@@H]1C(=O)NCCc1ccccn1 [CLIK-148, reference compound]
[6]
  effect on cell proliferation (relative CFSE fluorescence intensity vs DMSO): no effects on cell proliferation
[7]
  effect on degradation of elastin-FITC compared to control cells: did not decrease

## CCCNC(=O)[C@H]1O[C@@H]1C(=O)N[C@H](C(=O)N1CCC[C@@H]1C(=O)OC)[C@@H](C)CC [Compound 25, Methyl ((2S,3S)-3-(propylcarbamoyl)oxirane-2-carbonyl)-L-isoleucyl-D-prolinate]
[1]
  binding reversibility: cathepsin V activity after 2 h incubation and 100-fold rapid dilution: irreversible; also recorded: completely blocked
[2]
  inhibition at 50 µM: 83.7 ± 1%
[7]
  decrease of elastin-FITC degradation: 12.6 ± 4.8%
[4]
  mode of inhibition of cathepsin L: competitive
[4]; mean ± SD (n = 2)
  Ki: 9.9 ± 0.9 µM
[5]
  mode of inhibition of cathepsin V: competitive
[5]; mean ± SD (n = 2)
  Ki: 8 ± 0.02 µM

## CC(C)C[C@H](NC(=O)N1CCOCC1)C(=O)N[C@H](/C=C/S(=O)(=O)c1ccccc1)CCc1ccccc1 [LHVS, morpholinurea-leucine-homophenylalanine-vinylsulfone-phenyl, reference compound]
[6]
  effect on cell proliferation (relative CFSE fluorescence intensity vs DMSO): no effects on cell proliferation
[7]
  effect on degradation of elastin-FITC compared to control cells: did not decrease

## CC(C)C[C@H](NC(=O)[C@H]1O[C@@H]1C(=O)O)C(=O)NCCCCN=C(N)N [Compound E-64, reference compound]
[1]
  binding reversibility: cathepsin V activity after 2 h incubation and 100-fold rapid dilution: remained inhibited

## O=C(Nc1nc2c(s1)CN(Cc1ccccc1)CC2)c1cccc2ccccc12 [Compound 5, N-(5-benzyl-4,5,6,7-tetrahydrothiazolo[5,4-c]pyridin-2-yl)-1-naphthamide]
[1]
  binding reversibility: cathepsin V activity after 2 h incubation and 100-fold rapid dilution: reversible inhibition; also recorded: restored
[2]
  inhibition at 50 µM: 30.3 ± 5.5%
[3]
  inhibition at 50 µM: -5.8 ± 7%
[4]
  mode of inhibition of cathepsin L: uncompetitive
[4]; mean ± SD (n = 2)
  Cathepsin L Ki: 11.2 ± 0.1 µM
  Cathepsin L Ki′: 11.2 ± 0.1 µM
  Cathepsin L Ki′ (µM): 11.2 ± 0.1^e µM
[5]; mean ± SD (n = 2)
  Cathepsin V Ki (µM): no inhibition

## O=C(NCc1ccc(F)cc1)NCC1CCN(C(=O)Oc2ccccc2)CC1 [Compound 41]
[2]
  inhibition at 50 µM: 4.2 ± 0.9%
[3]
  inhibition at 50 µM: 17.7 ± 6.1%
[4]; mean ± SD (n = 2)
  Cathepsin L Ki (µM): n.i.^g
  Cathepsin L Ki′ (µM): n.i.^g
[5]; mean ± SD (n = 2)
  Cathepsin V Ki′ (µM): 612.5 ± 23.9^e µM
  Ki: 612 ± 23.9 µM

Source: article PMC9459403, “New inhibitors of cathepsin V impair tumor cell proliferation and elastin degradation and increase immune cell cytotoxicity” (Computational and Structural Biotechnology Journal, 2022)
